{"source": "patent US9192585B2", "about": "“Inhibitors of cognitive decline” (Cognition Therapeutics, Inc., priority 2009, dated 2015)", "key": {"[1]": {"system": "Abeta oligomer-induced acceleration of exocytosis in primary neurons", "test": "Exocytosis assay/MTT assay (Example AA)", "type": "cell-based", "conditions": "Rattus norvegicus, Primary neuron; 28 μM memantine, control; read-out: inhibition of oligomer effects", "protocol": "Primary neurons from E18 Sprague-Dawley rat embryos are plated at optimized concentrations in 384 well plates in NB media (Invitrogen). Neurons are maintained in cultures for 3 weeks, with twice weekly feeding of NB media with N2 supplement (Invitrogen). A test compound is added to cells, followed by addition of Vehicle or Abeta oligomer preparations (1.5 μM), and incubated for 1 to 24 hr at 37° C. in 5% CO2. MTT reagent (3-(4,5-dimethylthiazol-2-yl)-2,5diphenyl tetrazolium bromide) (Roche Molecular Biochemicals) is reconstituted in phosphate buffered saline to 5 mg/mL. 10 μL of MTT labeling reagent is added to each well and incubated at 37° C. for 1 h, then imaged. […]\nOptimal cell density is determined based on cellular response to Abeta oligomers using the exocytosis assay as a readout, and immunohistochemical analysis of the relative proportion of glia to neurons in the cultures. Cultures are monitored on a weekly basis with immunohistochemistry and image processing-based quantification to monitor the percentage of the cultures that are neurons vs. glia (Glial cells). […]\nHuman amyloid peptide 1-42 is obtained from California Peptide, with lot-choice contingent upon quality control analysis. […] Toxicity is monitored in each image-based assay via quantification of nuclear morphology visualized with the DNA binding dye DAPI (Invitrogen). […]"}, "[2]": {"system": "Abeta oligomer effects on membrane trafficking in primary rat neurons", "test": "Primary neuron-based functional screening assay, membrane trafficking (Example EE)", "type": "cell-based", "conditions": "for block of Abeta oligomer effects (decrease of intracellular formazan-filled vesicles): added to cultures prior to oligomer addition, FIG. 2A", "text": "Primary rat neurons grown for at least 3 weeks in vitro were chosen as the basis for this screening assay. […] More complex systems such as acute or organotypic brain slices are very useful but not amenable to high throughput screening. […] For this reason, primary neuronal cultures were chosen because of their ability to be used in high throughput screens and fidelity to what occurs in vivo.\nThe MTT assay can be used as a measure of toxicity in cultures. Yellow tetrazolium salts were endocytosed by cells and reduced to insoluble purple formazan in the endosomal pathway. The level of purple formazan was a reflection of the number of actively metabolizing cells in culture, and reduction in the amount of formazan was taken as a measure of cell death or metabolic toxicity in culture.\nThe exocytosis assay was adapted for use with mature primary neuronal cultures grown for 3 weeks in vitro.\nCompounds were added to neurons first, then oligomers were added.\nData were the average of 3 experiments. Scale bar=20 micron in FIG. 2D."}, "[3]": {"system": "Abeta oligomer-mediated memory deficits", "test": "Fear conditioning assay (Example FF)", "type": "in vivo", "conditions": "mice", "protocol": "CT0109 was tested in an animal model of a memory-dependent behavioral task known as fear conditioning. The study protocol was designed based on published protocols (See e.g. Puzzo D, Privitera L, Leznik E, FàM, Staniszewski A, Palmeri A, Arancio O. Picomolar amyloid-beta positively modulates synaptic plasticity and memory in hippocampus. J Neurosci. 2008 Dec. 31; 28(53):14537-45). The formation of contextual memories is dependent upon the integrity of medial temporal lobe structures such as the hippocampus. In this assay mice were trained to remember that a particular salient context (conditioned stimulus; CS) is associated with an aversive event, in this case a mild foot shock (the unconditioned stimulus, US). Animals that show good learning will express an increase in freezing behavior when placed back into the same context. This freezing is absent in a novel context. Increased freezing in the context indicates strong hippocampal-dependent memory formation in animals. Memory tested in Fear Conditioning is sensitive to elevations of soluble Aβ. […] The fear condition model for memory was performed as described herein."}}}
{"compound": "CC12CC3CC(C)(C1)CC(N)(C3)C2", "note": "[Memantine, memantine]", "values": [{"measurement": "inhibition at 28 µM", "setting": "[1]", "value": 50, "unit": "%"}]}
{"compound": "C[N+](C)(C)CCCCCC[N+](C)(C)C", "note": "[hexamethonium bromide]", "values": [{"measurement": "block of Abeta oligomer effects (decrease of intracellular formazan-filled vesicles)", "setting": "[2]", "value": "none were active"}]}
{"compound": "O[C@H]1[C@H](O)[C@@H](O)[C@H](O)[C@@H](O)[C@@H]1O", "note": "[scyllo-inositol]", "values": [{"measurement": "block of Abeta oligomer effects (decrease of intracellular formazan-filled vesicles)", "setting": "[2]", "value": "none were active"}]}
{"compound": "C[C@]12N[C@H](Cc3ccccc31)c1ccccc12", "note": "[MK-801]", "values": [{"measurement": "block of Abeta oligomer effects (decrease of intracellular formazan-filled vesicles)", "setting": "[2]", "value": "none were active"}]}
{"compound": "COc1cc(CCC(C)NCc2ccc(C(F)(F)F)cc2)ccc1O", "note": "(stereo not drawn) [CT0109, 4-(3-(4-(trifluoromethyl)benzylamino)butyl)-2-methoxyphenol]", "values": [{"measurement": "block of oligomer-mediated memory deficits at 2 pmol dose", "setting": "[3]; 2 pmol dose + Abeta (200 nM), FIG. 3 bar d, p<0.05", "value": "completely blocked"}, {"measurement": "block of oligomer effects on memory", "setting": "[3]; administered prior to Abeta oligomer administration, across doses", "value": "blocked oligomer effects on memory in a dose-dependent manner"}, {"measurement": "adverse behavioral changes", "setting": "[3]; any dose", "value": "No adverse behavioral changes"}, {"measurement": "effect of compound alone on memory", "setting": "[3]; without Abeta, data not shown", "value": "No effect"}, {"measurement": "EC50", "setting": "[2]; Rattus norvegicus, Neuron, FIG. 2B, read-out: EC50, inhibition of oligomer effects on membrane trafficking", "value": 7, "unit": "µM"}]}
